# Data published in patent publication US9073833B1, “Oxime-based compound, pharmaceutical composition containing the same and method for preparing the same” (Chang Gung University, priority 2014, dated 2015).
# Assays:
# [1] = system: foot edema induced by human neutrophil elastase; test: Foot edema induced by human neutrophil elastase in mice
# [2] = system: acute lung injury induced by LPS; test: LPS-induced acute lung injury: tissue pathological examination of lung; format: in vivo, mouse (C57BL/6); details: 100 mg/kg intraperitoneal; 6 hours after LPS; H&E, 400×
# Description: The left lung tissue of the mice from each group was rinsed with PBS and was fixed using a fixating solution (10% paraformaldehyde prepared in PBS) for 24 hours, followed by subjecting to ethanol dehydration treatment. The dehydrated tissue was then embedded in paraffin and sliced, thereby obtaining a sample with 4 to 6 μm thickness. The paraffin was then removed from the sample. The tissue was then stained with hematoxylin and eosin, was observed using an optical microscope (IX81, Olympus) at 400× magnification, and an image thereof was captured using a digital camera (DP72, Olympus).
# [3] = system: acute lung injury induced by LPS; test: LPS-induced acute lung injury: myeloperoxidase (MPO) activity in lung tissue; details: 100 mg/kg intraperitoneal, 60 minutes before LPS; 6 hours after LPS
# [4] = biological target: human neutrophil elastase (Homo sapiens (Human), UniProt P08246); test: Inhibition of human neutrophil elastase activity (MeO-Suc-Ala-Ala-Pro-Val-p-nitroanilide, OD405); format: biochemical; details: mean ± SEM (n = 3), 30° C., 30 minutes
# Chain of human neutrophil elastase (P08246 30-267): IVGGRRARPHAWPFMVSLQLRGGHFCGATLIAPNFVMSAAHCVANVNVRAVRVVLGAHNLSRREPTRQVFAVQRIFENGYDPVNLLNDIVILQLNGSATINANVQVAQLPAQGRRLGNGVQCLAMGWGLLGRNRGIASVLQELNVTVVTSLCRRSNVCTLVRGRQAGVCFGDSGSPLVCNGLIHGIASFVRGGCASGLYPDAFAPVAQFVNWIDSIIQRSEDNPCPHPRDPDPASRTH
Structure (SMILES),"edema degree (change in foot thickness) vs pathological control group ([1]; 50 mg/kg and 100 mg/kg intraperitoneal, 60 minutes before elastase, 10th-240th minute)","reduction of edema degree compared with Sivelestat ([1]; 100 mg/kg intraperitoneal, Sivelestat 100 mg/kg)","lung histology (alveolar edema, interstitial lung edema, leukocyte infiltration) [2]",MPO activity in lung tissue vs pathological control group [3],IC50 [4] [µM]
"C/C(=N\O)c1ccccc1NS(=O)(=O)c1ccc(OC(=O)C(C)(C)C)cc1 [Compound 1, (E)-4-(N-(2-(1(hydroxyimino)ethyl)phenyl)sulfamoyl)phenyl pivalate]",relatively lower edema degree,superior effect in reduction of edema degree to Sivelestat,"minor alveolar edema, interstitial lung edema, and leukocyte infiltration",significantly reduced MPO activity,
"C/C(=N\OCCCO)c1ccccc1NS(=O)(=O)c1ccc(OC(=O)C(C)(C)C)cc1 [Compound 7, (E)-4-(N-(2-(1-(3-hydroxypropoxyimino)ethyl)phenyl)sulfamoyl)phenyl pivalate]",,,,,159 ± 15.5
